These results are taken from patent US20260174871A1, “THIXOTROPIC DELIVERY SYSTEMS” (UNIVERSITY OF MONTANA, priority 2019, published 2026).

≈ marks a conversion by molar mass, not a printed value. Like-named read-outs stand apart in the source and are kept apart here. Some results are limits rather than exact numbers.

Test [1] deals with S. aureus 13709. Briefly: Kill kinetics of ciprofloxacin with or without gels. In kind it is cell-based, Staphylococcus aureus. The method, then: (§1) Growth was measured by sampling media placed above the thixogel and then quantifying colony forming units (CFU's) by serial dilution.
Test [2] has as its system P. aeruginosa 27853. Described as above. In kind it is cell-based, Pseudomonas aeruginosa. As to the method: as §1
Test [3] deals with S. aureus 13709. The test is described as follows: Minimum Inhibitory Concentration (MIC) of antibiotics with or without thixogel. In kind it is cell-based, Staphylococcus aureus. From the text:
(§2) The Minimum Inhibitory Concentration (MIC) defines the lowest antibiotic concentration that inhibits 99.9% of bacterial growth.

For test [4], the system named is P. aeruginosa 27853. The test is described as above. In kind it is cell-based, Pseudomonas aeruginosa.
Source text: as §2

Setting [5] is: ciprofloxacin 30 μg/mL loaded in HA and SF gels.

A word on the inhibition: it is the relative decrease from the control value, in per cent.

For the molecule `O=C(O)c1cn(C2CC2)c2cc(N3CCNCC3)c(F)cc2c1=O` [Ciprofloxacin, ciprofloxacin], the inhibition at 30 µg/mL in test [1] (Staphylococcus aureus, 13709, gel loaded drug, 30 μg/mL, read-out: inhibition of bacterial growth) came out at 100%; in test [2] (Pseudomonas aeruginosa, 27853, gel loaded drug, 30 μg/mL, read-out: inhibition of bacterial growth), 100%. Moreover, the “time to complete inhibition of bacterial growth” value in test [1] (setting [5]) and in test [2] (setting [5]) was “around four” in each case. Besides, the “inhibition of bacterial growth” value in test [1] (gel loaded drug, 30 μg/mL) is given as “more than 3 log10”; in test [2] (gel loaded drug, 30 μg/mL) it was “more than 3 log10”.
As to `CN[C@H](CC(C)C)C(=O)N[C@H]1C(=O)N[C@@H](CC(N)=O)C(=O)N[C@H]2C(=O)N[C@H]3C(=O)N[C@H](C(=O)N[C@H](C(=O)O)c4cc(O)cc(O)c4-c4cc3ccc4O)[C@H](O)c3ccc(c(Cl)c3)Oc3cc2cc(c3O[C@@H]2O[C@H](CO)[C@@H](O)[C@H](O)[C@H]2O[C@H]2C[C@](C)(N)[C@H](O)[C@H](C)O2)Oc2ccc(cc2Cl)[C@H]1O` [Vancomycin, vancomycin], the “potency / coverage of both pathogenic bacteria” value in test [3] (S. aureus (Gram positive)) and in test [4] (P. aeruginosa (Gram negative)) was “did not give coverage of both” throughout. For the same molecule, the MIC in test [3] (Staphylococcus aureus, 13709, read-out: Minimum Inhibitory Concentrations (MIC), S. aureus 13709, No Gel) was 2 µg/mL (≈ 1.38 µM); in test [3] (Staphylococcus aureus, 13709, read-out: Minimum Inhibitory Concentrations (MIC), S. aureus 13709, antibiotic delivered in HA thixogel), 16 µg/mL (≈ 11 µM); in test [3] (Staphylococcus aureus, 13709, read-out: Minimum Inhibitory Concentrations (MIC), S. aureus 13709, antibiotic delivered in SF thixogel), 4 µg/mL (≈ 2.76 µM); in test [4] (Pseudomonas aeruginosa, 27853, read-out: Minimum Inhibitory Concentrations (MIC), P. aeruginosa 27853, No Gel), > 4 µg/mL; in test [4] (Pseudomonas aeruginosa, 27853, read-out: Minimum Inhibitory Concentrations (MIC), P. aeruginosa 27853, antibiotic delivered in HA thixogel), > 32 µg/mL; in test [4] (Pseudomonas aeruginosa, 27853, read-out: Minimum Inhibitory Concentrations (MIC), P. aeruginosa 27853, antibiotic delivered in SF thixogel) it was > 32 µg/mL.
For the molecule gentamycin, the “effect of the gels (SF and HA) upon potency” value in test [3] (S. aureus) and in test [4] (P. aeruginosa) was “deleterious effect upon potency” each time. Moreover, the “Minimum Inhibitory Concentrations (MIC)” value in test [3] (S. aureus 13709, No Gel) came to 1 µg/mL; in test [3] (S. aureus 13709, antibiotic delivered in HA thixogel) it was 32 µg/mL; in test [3] (S. aureus 13709, antibiotic delivered in SF thixogel), 8 µg/mL; in test [4] (P. aeruginosa 27853, No Gel), 2 µg/mL; in test [4] (P. aeruginosa 27853, antibiotic delivered in HA thixogel), 32 µg/mL; in test [4] (P. aeruginosa 27853, antibiotic delivered in SF thixogel), 32 µg/mL.
As to `C[C@@H](O)[C@H]1C(=O)N2C(C(=O)O)=C(SCCN=CN)C[C@H]12` [Imipenem, imipenem], the MIC was 0.032 µg/mL (≈ 0.107 µM) in test [3] (Staphylococcus aureus, 13709, S. aureus 13709, No Gel, read-out: Minimum Inhibitory Concentrations (MIC)); < 0.032 µg/mL in test [3] (Staphylococcus aureus, 13709, S. aureus 13709, antibiotic delivered in HA thixogel, read-out: Minimum Inhibitory Concentrations (MIC)); 0.125 µg/mL (≈ 0.418 µM) in test [3] (Staphylococcus aureus, 13709, S. aureus 13709, antibiotic delivered in SF thixogel, read-out: Minimum Inhibitory Concentrations (MIC)); 2 µg/mL (≈ 6.68 µM) in test [4] (Pseudomonas aeruginosa, 27853, P. aeruginosa 27853, No Gel, read-out: Minimum Inhibitory Concentrations (MIC)); 4 µg/mL (≈ 13.4 µM) in test [4] (Pseudomonas aeruginosa, 27853, P. aeruginosa 27853, antibiotic delivered in HA thixogel, read-out: Minimum Inhibitory Concentrations (MIC)); > 4 µg/mL in test [4] (Pseudomonas aeruginosa, 27853, P. aeruginosa 27853, antibiotic delivered in SF thixogel, read-out: Minimum Inhibitory Concentrations (MIC)).
